Source: patent publication US20110112100A1, “Hepatitis C Virus Inhibitors” (priority 2009, published 2011)
Counter-ions that a name gives are not always drawn. Like-named read-outs stand apart in the source and are kept apart here.

Columns and labels:
[1] = tested on: 1b (con1) replicon cells; assay: HCV 1b replicon inhibitory activity (luciferase, Britelite Plus); assay type: cell-based, hepatitis C virus; conditions: read-out: IC50 value (95% Confidence Intervals) pM Replicon 1B assay
In short: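 1b (con1) luciferase replicon cells in DMEM + 10% FCS were exposed to 1-in-3 DMSO compound dilutions for 48 h at 37° C, 5% CO2. Luminescence was read 1-15 min after Britelite Plus addition; EC50 came from log concentration-response curves.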

[2] = tested on: 1a-H77 replicon cells; assay: HCV 1a replicon inhibitory activity (Renilla luciferase); assay type: cell-based, hepatitis C virus; conditions: read-out: IC50 value (95% Confidence Intervals) pM Replicon 1A assay
In short: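 Replicon cells in DMEM + 10% FCS incubated 48 hours at 37° C., 5% CO2 with 1-in-3 serial dilutions of compound prepared in DMSO. Replication read as Renilla luciferase luminescence after lysis. EC50 taken from log concentration-response curves.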

[3] = Compound induced cytotoxicity in HCV replicon cell lines (WST-1 reagent); assay type: cell-based; conditions: human
Experimental: Test compounds were solubilised to 4 mM in 100% DMSO. Dilutions were made to the desired starting concentration in 100% DMSO and then 1 in 3 dilutions made, again in 100% DMSO. 0.5 μl of each sample was added to 384-well assay plates. White Lumitrac (Greiner) plates were used for the 1a and 1b replicon assays and black, clear bottomed (Greiner) plates were used for the WST-1 cytotoxity assay.
1b (con1) replicon cells were resuspended to a concentration of 1.4×10^5 cells/ml by addition of pre-warmed medium (DMEM+10% FCS). 50 μl of this suspension was added to each well of a 384-well assay plate (Black, clear bottomed, Greiner) already containing 0.5 μl of test compound.
All plates were covered with gas permeable seals and incubated at 37° C., 5% CO2 for 48 hours. After 48 hours, 5 μl WST-1 reagent (Roche, 11 644 807 001) was added to each well and the plate returned to the incubator for 3 hours. After this incubation period absorbance was read at 450 nm on an EnVision (Perkin Elmer) plate reader. The half maximal cytotoxic concentration (CC50) values were calculated for each compound by constructing log concentration-response curves.
All of the exemplified compounds have been screened in a cell proliferation assay (WST-1). A majority have […] in at least 2 independent experiments, the exceptions being the compounds of examples 1, 10, 12, 23, 25, 37, 47, 48, 49, 52, 56, 57, 58, 60, 67, 68, 69, 70, 71, 72, 73, 74, 79, 81 and 84 which have CC50 values>2 μM in 1 experiment, and example 20 where the CC50 is reported as >10 nM (in this instance the top concentration tested in the assay was 10 nM).

[4] = Hepatitis C virus, geometric mean, 95% confidence intervals in parentheses, 48 hours, medium with 10% FCS
[5] = 1b (con1) HCV replicon cells, WST-1, 48 hours, in 1 experiment
[6] = geometric mean, 95% confidence intervals in parentheses, 48 hours, medium with 10% FCS

## COC(=O)N[C@H](C(=O)N1CCC[C@H]1c1ncc(-c2ccc(-c3ncc4cc(-c5cnc([C@@H]6CCCN6C(=O)[C@@H](NC(=O)OC)C(C)C)[nH]5)ccc4n3)nc2)[nH]1)C(C)C [Example 20, Methyl {(2S)-1-[(2S)-2-{5-[2-(5-{2-[(2S)-1-{(2S)-2-[(methoxycarbonyl)amino]-3-methylbutanoyl}pyrrolidin-2-yl]-1H-imidazol-5-yl}pyridin-2-yl)quinazolin-6-yl]-1H-imidazol-2-yl}pyrrolidin-1-yl]-3-methyl-1-oxobutan-2-yl}carbamate]
[1]; [4]
  IC50: 127 pM
[2]; [4]
  IC50: 1720 pM
[3]; 1b (con1) HCV replicon cells, WST-1, top concentration tested in the assay was 10 nM
  CC50 at 48 h: > 10 nM

## COC(=O)N[C@@H](CCc1ccccc1)C(=O)N1CCC[C@H]1c1ncc(-c2ccc3nc(-c4ccc(-c5c[nH]c([C@@H]6CCCN6C(=O)[C@@H](NC(=O)OC)C(C)C)n5)cc4)cnc3c2)[nH]1 [Example 79, Methyl {(2S)-1-[(2S)-2-{5-[2-(4-{2-[(2S)-1-{(2S)-2-[(methoxycarbonyl)amino]-3-methylbutanoyl}pyrrolidin-2-yl]-1H-imidazol-4-yl}phenyl)quinoxalin-6-yl]-1H-imidazol-2-yl]pyrrolidin-1-yl]-1-oxo-4-phenylbutan-2-yl}carbamate trifluoroacetic acid salt]
[1]; Hepatitis C virus, 48 h
  IC50: 11.7 pM
[2]; Hepatitis C virus, 48 h
  IC50: 47.6 pM
[3]; [5]
  CC50 at 48 h: > 2000 nM

## COC(=O)N[C@H](C(=O)N1CCC[C@H]1c1nc(-c2ccc(-c3cnc4cc(-c5cnc([C@@H]6CCCN6C(=O)[C@@H](NC(=O)OC)[C@@H](C)O)[nH]5)ccc4n3)cc2)c[nH]1)C(C)C [Example 60, Methyl {(2S)-1-[(2S)-2-{4-[4-(6-{2-[(2S)-1-{(2S,3R)-3-hydroxy-2-[(methoxycarbonyl)amino]butanoyl}pyrrolidin-2-yl]-1H-imidazol-5-yl}quinoxalin-2-yl)phenyl]-1H-imidazol-2-yl}pyrrolidin-1-yl]-3-methyl-1-oxobutan-2-yl}carbamate trifluoroacetic acid salt]
[1]; Hepatitis C virus, 48 h
  IC50: 23.7 pM
[2]; Hepatitis C virus, 48 h
  IC50: 22.3 pM
[3]; WST-1, 48 hours, in 1 experiment
  CC50 at 48 h: > 2000 nM

## COC(=O)N[C@H](C(=O)N1CCC[C@H]1c1nc(-c2ccc(-c3cnc4cc(-c5cnc([C@@H]6CCCN6C(=O)[C@@H](NC(=O)OC)[C@@H](C)OC(C)(C)C)[nH]5)ccc4n3)cc2)c[nH]1)C(C)C [Example 74, Methyl {(2S)-1-[(2S)-2-{4-[4-(6-{2-[(2S)-1-{(2S,3R)-3-tert-butoxy-2-[(methoxycarbonyl)amino]butanoyl}pyrrolidin-2-yl]-1H-imidazol-5-yl}quinoxalin-2-yl)phenyl]-1H-imidazol-2-yl}pyrrolidin-1-yl]-3-methyl-1-oxobutan-2-yl)carbamate]
[1]; [4]
  IC50: 14.2 pM
[2]; [4]
  IC50: 43.7 pM
[3]; [5]
  CC50 at 48 h: > 2000 nM

## COC(=O)N[C@@H](Cc1ccccc1)C(=O)N1CCC[C@H]1c1ncc(-c2ccc3nc(-c4ccc(-c5c[nH]c([C@@H]6CCCN6C(=O)[C@@H](NC(=O)OC)C(C)C)n5)cc4)cnc3c2)[nH]1 [Example 49, Methyl {(2S)-1-[(2S)-2-{5-[2-(4-{2-[(2S)-1-{(2S)-2-[(methoxycarbonyl)amino]-3-methylbutanoyl}pyrrolidin-2-yl]-1H-imidazol-4-yl}phenyl)quinoxalin-6-yl]-1H-imidazol-2-yl}pyrrolidin-1-yl]-1-oxo-3-phenylpropan-2-yl}carbamate trifluoroacetic acid salt]
[1]; Hepatitis C virus, 48 h
  IC50: 7.27 pM
[2]; Hepatitis C virus, 48 h
  IC50: 73 pM
[3]; [5]
  CC50 at 48 h: > 2000 nM

## CCCC[C@@H](NC(=O)OC)C(=O)N1CCC[C@H]1c1ncc(-c2ccc3nc(-c4ccc(-c5c[nH]c([C@@H]6CCCN6C(=O)[C@@H](NC(=O)OC)C(C)C)n5)cc4)cnc3c2)[nH]1 [Example 78, Methyl {(2R)-1-[(2S)-2-{5-[2-(4-{2-[(2S)-1-{(2S)-2-[(methoxycarbonyl)amino]-3-methylbutanoyl}pyrrolidin-2-yl]-1H-imidazol-4-yl}phenyl)quinoxalin-6-yl]-1H-imidazol-2-yl}pyrrolidin-1-yl]-1-oxohexan-2-yl}carbamate trifluoroacetic acid salt]
[1]; Hepatitis C virus, 48 h
  IC50: 45.5 pM
[2]; Hepatitis C virus, 48 h
  IC50: 443 pM

## COC(=O)N[C@H](C(=O)N1CCC[C@H]1c1nc(-c2ccc(-c3nc4ccc(-c5c[nH]c([C@@H]6CCCN6C(=O)[C@@H](NC(=O)OC)C(C)C)n5)cc4nc3O)cc2)c[nH]1)C(C)C [Example 18, Methyl {(2S)-1-[(2S)-2-{4-[4-(3-hydroxy-6-{2-[(2S)-1-{(2S)-2-[(methoxycarbonyl)amino]-3-methylbutanoyl}pyrrolidin-2-yl]-1H-imidazol-4-yl}quinoxalin-2-yl)phenyl]-1H-imidazol-2-yl}pyrrolidin-1-yl]-3-methyl-1-oxobutan-2-yl}carbamate]
[1]; [4]
  IC50: 35.8 pM
[2]; [4]
  IC50: 536 pM

## CCC[C@H](NC(=O)OC)C(=O)N1CCC[C@H]1c1ncc(-c2ccc3nc(-c4ccc(-c5c[nH]c([C@@H]6CCCN6C(=O)[C@@H](NC(=O)OC)C(C)C)n5)cc4)cnc3c2)[nH]1 [Example 55, Methyl {(2S)-1-[(2S)-2-{5-[2-(4-{2-[(2S)-1-{(2S)-2-[(methoxycarbonyl)amino]-3-methylbutanoyl}pyrrolidin-2-yl]-1H-imidazol-4-yl}phenyl)quinoxalin-6-yl]-1H-imidazol-2-yl}pyrrolidin-1-yl]-1-oxopentan-2-yl}carbamate trifluoroacetic acid salt]
[1]; Hepatitis C virus, 48 h
  IC50: 8.85 pM
[2]; Hepatitis C virus, 48 h
  IC50: 18.1 pM

## CCOc1nc(-c2ccc(-c3cnc([C@@H]4CCCN4C(=O)[C@@H](NC(=O)OC)C(C)C)[nH]3)cc2)nc2ccc(-c3cnc([C@@H]4CCCN4C(=O)[C@@H](NC(=O)OC)C(C)C)[nH]3)cc12 [Example 16, Methyl {(2S)-1-[(2S)-2-{5-[4-(4-ethoxy-6-{2-[(2S)-1-{(2S)-2-[(methoxycarbonyl)amino]-3-methylbutanoyl}pyrrolidin-2-yl]-1H-imidazol-5-yl}quinazolin-2-yl)phenyl]-1H-imidazol-2-yl}pyrrolidin-1-yl]-3-methyl-1-oxobutan-2-yl}carbamate]
[1]; [4]
  IC50: 5.28 pM
[2]; [4]
  IC50: 35.3 pM

## COC(=O)N[C@@H](C)C(=O)N1CCC[C@H]1c1ncc(-c2ccc3nc(-c4ccc(-c5c[nH]c([C@@H]6CCCN6C(=O)[C@@H](NC(=O)OC)C(C)C)n5)cc4)cnc3c2)[nH]1 [Example 57, Methyl {(2S)-1-[(2S)-2-(4-{4-[6-(2-{(2S)-1-[N-(methoxycarbonyl)-L-alanyl]pyrrolidin-2-yl}-1H-imidazol-5-yl)quinoxalin-2-yl]phenyl}-1H-imidazol-2-yl)pyrrolidin-1-yl]-3-methyl-1-oxobutan-2-yl} carbamate trifluoroacetic acid salt]
[1]; [6]
  IC50: 21.9 pM
[2]; [6]
  IC50: 21.8 pM

## COC(=O)N[C@H](C(=O)N1CCC[C@H]1c1nc(-c2cnc(-c3cnc4cc(-c5cnc([C@@H]6CCCN6C(=O)[C@@H](NC(=O)OC)C(C)C)[nH]5)ccc4n3)nc2)c[nH]1)C(C)C [Example 21, Methyl {(2S)-1-[(2S)-2-{5-[2-(5-{2-[(2S)-1-{(2S)-2-[(methoxycarbonyl)amino]-3-methylbutanoyl}pyrrolidin-2-yl]-1H-imidazol-4-yl}pyrimidin-2-yl)quinoxalin-6-yl]-1H-imidazol-2-yl}pyrrolidin-1-yl]-3-methyl-1-oxobutan-2-yl}carbamate]
[1]; [4]
  IC50: 222 pM
[2]; [4]
  IC50: 671 pM

## COC(=O)N[C@H](C(=O)N1CCC[C@H]1c1nc(-c2ccc(-c3cnc4cc(-c5cnc([C@@H]6CCCN6C(=O)[C@@H](NC(C)=O)[C@@H](C)O)[nH]5)ccc4n3)cc2)c[nH]1)C(C)C [Example 40, Methyl {(2S)-1-[(2S)-2-{4-[4-(6-{2-[(2S)-1-(N-acetyl-L-threonyl)pyrroldiin-2-yl]-1H-imidazol-5-yl}quinoxalin-2-yl)phenyl]-1H-imidazol-2-yl}pyrrolidin-1-yl]-3-methyl-1-oxobutan-2-yl}carbamate trifluoroacetic acid salt]
[1]; [6]
  IC50: 55.8 pM
[2]; [6]
  IC50: 353 pM
